# Experimental data taken from ChEMBL document CHEMBL1122763, “Synthesis and biological activity of certain 3,4-disubstituted pyrazolo[3,4-d]pyrimidine nucleosides” (J Med Chem, 1984).
# Active and inactive are the calls of the source. The calls are words filed in the database; no cut-off is given here.
# Assays:
# [1] = Toxic level was determined; assay type: ADME
# P388 [2] = assay: Percent inhibition at a concentration 10 E -4 against P388 lymphoid neoplasm cells; assay type: functional, Mus musculus
# Vero [3] = assay: Virus rating was determined by comparing cytopathic effect against vero cells after infection with Vaccinia virus; assay type: functional, Chlorocebus sabaeus
# Vero [4] = assay: Virus rating was determined by comparing cytopathic effect against vero cells after infection with Herpes simplex virus-1; assay type: functional, Chlorocebus sabaeus
# L1210 [5] = assay: Percent inhibition at a concentration 10 E -4 against L1210 leukemia cells; Inactive; assay type: functional, cell-based; settings: Mus musculus
# Vero [6] = assay: Virus rating was determined by comparing cytopathic effect against vero cells after infection with Parainfluenza type 3 (para 3); assay type: functional, Chlorocebus sabaeus
# B16 [7] = assay: 50% inhibition of the tumor cell growth as compared to the untreated controls against B16 melanoma cells; assay type: functional; settings: Mus musculus, read-out: ID50 (the source's name)
# Vero [8] = assay: Virus rating was determined by comparing cytopathic effect against vero cells after infection with Vesicular stomatitis virus; assay type: functional, Chlorocebus sabaeus
# P388 [9] = assay: Compound was evaluated for inhibition of P388 lymphoid neoplasm cells; assay type: functional; settings: Mus musculus, read-out: ID50 (the source's name)
# L1210 [10] = assay: Compound was evaluated for inhibition of L1210 leukemia cells; assay type: functional; settings: Mus musculus, read-out: ID50 (the source's name)
# [11] = system: Lewis lung carcinoma cell line; assay: 50% inhibition of the tumor cell growth as compared to the untreated controls against Lewis lung cells; assay type: functional; settings: Mus musculus, read-out: ID50 (the source's name)
# Leishmania tropica [12] = assay: Concentration in the culture media that produced 50% inhibition of the leishmania tropica growth; assay type: functional; settings: for EC50: read-out: ED50 (the source's name)
# P388 [13] = assay: Inhibition at a concentration 10 E -4 against P388 lymphoid neoplasm cells; Inactive; assay type: functional, cell-based; settings: Mus musculus
# [14] = (§1) Toxic level was determined; Non toxic; assay type: functional
# L1210 [15] = assay: Compound was evaluated for inhibition against L1210 leukemia cells; assay type: functional; settings: Mus musculus, read-out: ID50 (the source's name)
# P388 [16] = assay: Compound was evaluated for inhibition against P388 lymphoid neoplasm cells; assay type: functional; settings: Mus musculus, read-out: ID50 (the source's name)
# L1210 [17] = assay: Percent inhibition at a concentration 10 E -4 against L1210 leukemia cells; assay type: functional, Mus musculus
# P388 [18] = assay: Percent inhibition at a concentration 10 E -4 against P388 lymphoid neoplasm cells; Inactive; assay type: functional, cell-based; settings: Mus musculus
# B16 [19] = assay: 50% inhibition of the tumor cell growth as compared to the untreated controls against B16 melanoma cells; Inactive; assay type: functional, cell-based; settings: Mus musculus
# [20] = system: Lewis lung carcinoma cell line; assay: 50% inhibition of the tumor cell growth as compared to the untreated controls against Lewis lung cells; Inactive; assay type: functional, cell-based; settings: Mus musculus
# B16 [21] = assay: Percent inhibition of the tumor cell growth as compared to the untreated controls against B16 melanoma cells at a concentration of 10 E-4; assay type: functional, Mus musculus
# [22] = as §1; assay type: ADME
# Leishmania tropica [23] = assay: Concentration in the culture media that produced 50% inhibition of the leishmania tropica growth; Range is 76-190; assay type: functional; settings: read-out: ED50 (the source's name)
smiles,measurement,setting,value
CNc1nn(C2O[C@H](CO)[C@@H](O)[C@H]2O)c2nc[nH]c(=O)c12 (some centres not stated),Toxic level,[1],1.6 mM
same,Inhibition,P388 [2],20%
same,Virus rating,Vero [3],0.2
same,Virus rating,Vero [4],0
same,inhibition,L1210 [5],inactive
same,Virus rating,Vero [6],0.1
O=Nn1c(=O)c2c(O)ncnc2n1C1O[C@H](CO)[C@@H](O)[C@H]1O (some centres not stated),IC50,B16 [7],80000 nM
same,Virus rating,Vero [8],0
same,IC50,P388 [9],160 nM
same,IC50,L1210 [10],430 nM
same,Toxic level,[1],5 mM
same,IC50,[11],2500 nM
same,Virus rating,Vero [3],0.8
same,EC50,Leishmania tropica [12],> 160000 nM
same,Virus rating,Vero [4],0.35
same,Virus rating,Vero [6],0.45
Nc1ncnc2c1c(N)nn2C1O[C@H](CO)[C@@H](O)[C@H]1O (some centres not stated),Virus rating,Vero [8],0.25
same,ID50,P388 [13],inactive
same,Toxic level,[14],5 mM
same,Virus rating,Vero [3],0.4
same,Virus rating,Vero [4],1.3
same,Virus rating,Vero [6],0.45
N#Cc1nn(C2O[C@H](CO)[C@@H](O)[C@H]2O)c2nc[nH]c(=O)c12 (some centres not stated),IC50,B16 [7],7000 nM
same,Virus rating,Vero [8],0
same,IC50,L1210 [15],200 nM
same,IC50,P388 [16],460 nM
same,Toxic level,[14],5 mM
same,IC50,[11],250000 nM
same,Virus rating,Vero [3],0.55
same,Virus rating,Vero [4],0.25
same,Virus rating,Vero [6],0.32
OC[C@H]1OC(n2ncc3c(S)ncnc32)[C@H](O)[C@@H]1O (some centres not stated),EC50,Leishmania tropica [12],72000 nM
O=c1[nH]cnc2c1c(Br)nn2C1O[C@H](CO)[C@@H](O)[C@H]1O (some centres not stated),Inhibition,L1210 [17],25%
same,Toxic level,[1],5 mM
same,Inhibition,P388 [2],28%
same,IC50,Leishmania tropica [12]; read-out: ID50 (the source's name),> 15000 nM
same,Virus rating,Vero [4],0.2
same,Virus rating,Vero [6],0.03
N=C(NO)c1nn(C2O[C@H](CO)[C@@H](O)[C@H]2O)c2nc[nH]c(=O)c12 (some centres not stated),ID50,P388 [18],inactive
same,Virus rating,Vero [8],0.35
same,Toxic level,[14],5 mM
same,Virus rating,Vero [3],0.12
same,Virus rating,Vero [4],0.1
same,ID50,L1210 [5],inactive
same,Virus rating,Vero [6],0.2
Nc1nn(C2O[C@H](CO)[C@@H](O)[C@H]2O)c2nc[nH]c(=O)c12 (some centres not stated),inhibition,P388 [18],inactive
same,Virus rating,Vero [8],0
same,ID50,B16 [19],inactive
same,Toxic level,[1],5 mM
same,ID50,[20],inactive
same,Virus rating,Vero [3],0.45
same,EC50,Leishmania tropica [12],> 177000 nM
same,Virus rating,Vero [4],0.15
same,inhibition,L1210 [5],inactive
same,Virus rating,Vero [6],0.3
N#Cc1nn(C2O[C@H](CO)[C@@H](O)[C@H]2O)c2ncnc(N)c12 (some centres not stated),IC50,L1210 [10],79 nM
NC(=S)c1nn(C2O[C@H](CO)[C@@H](O)[C@H]2O)c2nc[nH]c(=O)c12 (some centres not stated),IC50,B16 [7],16000 nM
same,IC50,P388 [9],600 nM
same,IC50,L1210 [10],360 nM
same,Toxic level,[1],5 mM
same,IC50,[11],2400 nM
same,Virus rating,Vero [3],0.4
same,Virus rating,Vero [4],0
same,Virus rating,Vero [6],1.15
NC(=O)c1nn(C2O[C@H](CO)[C@@H](O)[C@H]2O)c2nc[nH]c(=O)c12 (some centres not stated),Virus rating,Vero [8],0
same,IC50,P388 [9],18000 nM
same,IC50,L1210 [10],13000 nM
same,Inhibition,B16 [21],37%
same,Toxic level,[1],5 mM
same,IC50,[11],20000 nM
same,Virus rating,Vero [3],0.4
same,Virus rating,Vero [4],0
same,Virus rating,Vero [6],0.3
N#Cc1nn(C2O[C@H](CO)[C@@H](O)[C@H]2O)c2ncnc(S)c12 (some centres not stated),Virus rating,Vero [8],0.56
same,IC50,P388 [9],320 nM
same,IC50,L1210 [10],140 nM
same,Virus rating,Vero [3],1.24
same,Virus rating,Vero [4],1
same,Virus rating,Vero [6],1.1
same,Toxic level,[22],5 mM
Nc1ncnc2c1c(Br)nn2C1O[C@H](CO)[C@@H](O)[C@H]1O (some centres not stated),inhibition,P388 [18],inactive
same,Inhibition,L1210 [17],28%
same,Virus rating,Vero [8],0
same,Toxic level,[1],0.5 mM
same,Virus rating,Vero [3],0.1
same,Virus rating,Vero [4],0.4
same,Virus rating,Vero [6],0.2
Cl.N=C(N)c1nn(C2O[C@H](CO)[C@H](O)[C@@H]2O)c2ncnc(O)c12 (some centres not stated),IC50,B16 [7],3800 nM
same,Virus rating,Vero [8],0
same,IC50,P388 [9],370 nM
same,IC50,L1210 [10],230 nM
same,Toxic level,[1],5 mM
same,IC50,[11],6400 nM
same,Virus rating,Vero [3],0.31
same,Virus rating,Vero [4],0.2
same,Virus rating,Vero [6],1.1
CSc1nn(C2O[C@H](CO)[C@@H](O)[C@H]2O)c2nc[nH]c(=O)c12 (some centres not stated),Toxic level,[1],5 mM
same,Inhibition,P388 [2],16%
same,Virus rating,Vero [3],0
same,Virus rating,Vero [4],0.16
same,inhibition,L1210 [5],inactive
same,Virus rating,Vero [6],0.11
O=c1[nH]cnc2c1cnn2[C@@H]1O[C@H](CO)[C@@H](O)[C@H]1O,Virus rating,Vero [8],0.3
same,Toxic level,[14],5 mM
same,EC50,Leishmania tropica [23],76000 nM
same,Virus rating,Vero [4],0
same,Virus rating,Vero [6],0.2
